This note sets out measurements from patent US6339073B1, “Uses of nicotinamide adenine dinucleotide and its derivatives for treatment of malignant and infectious diseases” (Oxigene, Inc., priority 1997, dated 2002).

Data set [1] deals with HL60 (human promyeloid leukemia line) cells. Kind of data set: Measurement of in vitro cytotoxicity by apoptosis. In kind it is cell-based. On the procedure:
Cell culture. HL60 (human promyeloid leukemia line) cells were cultured at a density of 0.5×106 to 1.0×10^6 cells/ml in RPMI medium supplemented with 10% fetal calf serum (FCS) at 37° C. in a 5% CO2 atmosphere. The cells were harvested by centrifugation and resuspended in fresh medium at a concentration of 1×106 to 2×10^6 cells/ml for bioassay purposes.
Measurement of in vitro cytotoxicity by apoptosis. HL60 cells were exposed in culture to 2 Gy radiation, 100 μM nMCA (neutral metoclopramide, Neu-Sensamide), 0-5000 μM NAD±10 mM, and±NADase inhibitor, 3-acetyl pyridine adenine dinucleotide, given 30 minutes before drug treatment. The % apoptosis was determined after 6 hours. The cytotoxicity was evaluated by morphological identification of apoptotic cells (400 ×magnification with phase contrast microscopy) using trypan blue exclusion (0.1% isotonic solution+5% serum) after 5 minutes incubation at room temperature. Apoptotic cells were identified as having chromatin condensation, shrinkage, membrane blebbing, fragmentation and appearance of “apoptotic bodies” (Kaufman et al, Cancer Res. 53:3976-3985, 1993).

A further data set deals with K562 leukemic cells. In kind it is cell-based. An excerpt: Final methyl cellulose concentration was 0.6%.
For another data set, the system named is HL60 cells. Kind of data set: cells. On the procedure:
Assessment of cytotoxicity in HL60 and K562 cells by clonogenic assay. The assay used is based on Schweitzer et al (Exper. Hematol. 21: 573-578, 1993). HL60 or K562 cells were cultured in 96-well microplates, at 800 cells per well, in a medium of 0.6% methyl cellulose (Methocel A4M, Dow Chemicals, USA), 10% fetal calf serum, RPMI 1640 (Life Technologies Ltd, UK), and gentamycin (50 μg/ml, Biological Industries, Israel). Microculture wells received 10 μl of NAD, NADP, NADH, ADP-ribose, nicotinamide (NAM), or 3-acetyl pyridine adenine dinucleotide solutions within which the final concentrations were adjusted to be between 0-5000 μM after addition of 190 μl cell-containing medium. Final methyl cellulose concentration was 0.6%. […] In the case of the radiosensitization experiments, the cells were irradiated with 1-2 Gy gamma radiation 15 minutes before addition of NAD. The central area of the bottom of each well (25% of total) was counted, and the counts of colonies and clusters expressed as % of control in order to avoid influences from inter-experimental baseline variations.

Data set [2] concerns human lung adenocarcinoma (H2981) xenograft. Kind of data set: Evaluation of antitumor activity of NAD in vivo. More on the design: species or system Scid mice. As to conditions: NAD i.p. 25 or 50 mg/kg, 21 days. On the procedure:
Evaluation of antitumor activity of NAD in vivo. Scid mice (n=10 per group) were transplanted by subcutaneous injection of H-2981 (human adenocarcinoma) tumor tissue suspension in the right flank. When the tumors grew to 80-100 mm2, the animals were divided into three groups: Group 1 was injected i.p. with saline, Group 2 was injected i.p. with NAD at 25 mg/kg dissolved in saline, and Group 3 was injected i.p. with NAD at 50 mg/kg. The treatment schedule was daily Monday through Friday with no treatment Saturday and Sunday for 21 days. Tumor volumes were recorded every other day for 21 days and converted to AUC tumor growth values as previously described in detail (Hua et al, Anti-Cancer Drugs 6: 451-455, 1995).

Each structure is given as a SMILES string. Where only a bound is given, the exact number is not on record here.

As for `CC(=O)c1ccc[n+]([C@@H]2O[C@H](COP(=O)([O-])OP(=O)(O)OC[C@H]3O[C@@H](n4cnc5c(N)ncnc54)[C@H](O)[C@@H]3O)[C@@H](O)[C@H]2O)c1` [3-acetyl pyridine adenine dinucleotide, reference compound], the induction of apoptosis entry in data set [1] (% apoptosis after 6 hours, without NADase inhibitor) is “cannot induce cytoxicity by apoptosis”. The “clonogenic cytotoxicity (number of colonies)” value (shortened to “clonogenic cytotoxicity”) with K562 leukemic cells and with HL60 cells was “can nonetheless show cytotoxicity” throughout. Turning to `Nc1ncnc2c1ncn2[C@@H]1O[C@H](COP(=O)(O)OP(=O)(O)OC[C@H]2OC(O)[C@H](O)[C@@H]2O)[C@@H](O)[C@H]1O` (some centres unmarked) [ADP-ribose], the “clonogenic cytotoxicity” value with K562 leukemic cells is given as “the same”; with HL60 cells, “equally effective at inducing cytotoxicity”. For `NC(=O)c1ccc[n+]([C@@H]2O[C@H](COP(=O)([O-])OP(=O)(O)OC[C@H]3O[C@@H](n4cnc5c(N)ncnc54)[C@H](O)[C@@H]3O)[C@@H](O)[C@H]2O)c1` [NAD, nicotinamide adenine dinucleotide], in data set [2], the “body weight loss or acute symptoms” value is recorded as “no significant body weight loss or acute symptoms”. Also, in the data set on K562 leukemic cells, the “clonogenic cytotoxicity” value is reported as “the same”. In addition, the IC50 with HL60 cells (Homo sapiens, HL-60, 144 h, read-out: Doses that result in >50% inhibition of clonogenicity) was below 500 µM. `NC(=O)C1=CN([C@@H]2O[C@H](COP(=O)(O)OP(=O)(O)OC[C@H]3O[C@@H](n4cnc5c(N)ncnc54)[C@H](O)[C@@H]3O)[C@@H](O)[C@H]2O)C=CC1` [NADH]: the “clonogenic cytotoxicity” value in the data set with HL60 cells was “equally effective at inducing cytotoxicity”. Same read-out and setting: as for `NC(=O)c1cccnc1` [Nicotinamide, nicotinamide], the entry is “little to no effect on clonogenicity”. In the case of `CCN(CC)CCNC(=O)c1cc(Cl)c(N)cc1OC` [nMCA, neutral metoclopramide], in data set [1] (10 mM 3-acetyl pyridine adenine dinucleotide given 30 minutes before drug, 6 hours), the “effect of NADase inhibitor on drug induced apoptosis” value was “unaffected by the presence of the NADase inhibitor”.
